Reference: paper PMC8213057, “Targeting ALK2: An Open Science Approach to Developing Therapeutics for the Treatment of Diffuse Intrinsic Pontine Glioma” (Journal of Medicinal Chemistry, 2020)

Experiments:
VRK1 = molecular target: T1, VRK1 (Homo sapiens, UniProt Q99986); conditions: 1 μM; Run 1, Run 2
T1 sequence (Q99986 1-396): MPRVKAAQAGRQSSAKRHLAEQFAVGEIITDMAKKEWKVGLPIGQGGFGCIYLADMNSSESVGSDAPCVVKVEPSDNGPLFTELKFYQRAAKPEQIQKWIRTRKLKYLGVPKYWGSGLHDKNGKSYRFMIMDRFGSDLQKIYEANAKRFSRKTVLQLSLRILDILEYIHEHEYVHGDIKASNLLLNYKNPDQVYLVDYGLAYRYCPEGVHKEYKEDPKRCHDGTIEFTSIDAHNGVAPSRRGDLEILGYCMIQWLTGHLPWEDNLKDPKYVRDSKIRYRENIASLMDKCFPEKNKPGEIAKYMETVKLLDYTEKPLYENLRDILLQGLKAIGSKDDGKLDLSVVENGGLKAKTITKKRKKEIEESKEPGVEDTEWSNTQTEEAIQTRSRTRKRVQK

MLK2/MAP3K10 = MLK2/MAP3K10 (Homo sapiens, UniProt Q02779); experiment: biochemical; conditions: read-out: % enzyme activity, 1 μM; Run 1, Run 2
Sequence of MLK2/MAP3K10 (Q02779 whole entry): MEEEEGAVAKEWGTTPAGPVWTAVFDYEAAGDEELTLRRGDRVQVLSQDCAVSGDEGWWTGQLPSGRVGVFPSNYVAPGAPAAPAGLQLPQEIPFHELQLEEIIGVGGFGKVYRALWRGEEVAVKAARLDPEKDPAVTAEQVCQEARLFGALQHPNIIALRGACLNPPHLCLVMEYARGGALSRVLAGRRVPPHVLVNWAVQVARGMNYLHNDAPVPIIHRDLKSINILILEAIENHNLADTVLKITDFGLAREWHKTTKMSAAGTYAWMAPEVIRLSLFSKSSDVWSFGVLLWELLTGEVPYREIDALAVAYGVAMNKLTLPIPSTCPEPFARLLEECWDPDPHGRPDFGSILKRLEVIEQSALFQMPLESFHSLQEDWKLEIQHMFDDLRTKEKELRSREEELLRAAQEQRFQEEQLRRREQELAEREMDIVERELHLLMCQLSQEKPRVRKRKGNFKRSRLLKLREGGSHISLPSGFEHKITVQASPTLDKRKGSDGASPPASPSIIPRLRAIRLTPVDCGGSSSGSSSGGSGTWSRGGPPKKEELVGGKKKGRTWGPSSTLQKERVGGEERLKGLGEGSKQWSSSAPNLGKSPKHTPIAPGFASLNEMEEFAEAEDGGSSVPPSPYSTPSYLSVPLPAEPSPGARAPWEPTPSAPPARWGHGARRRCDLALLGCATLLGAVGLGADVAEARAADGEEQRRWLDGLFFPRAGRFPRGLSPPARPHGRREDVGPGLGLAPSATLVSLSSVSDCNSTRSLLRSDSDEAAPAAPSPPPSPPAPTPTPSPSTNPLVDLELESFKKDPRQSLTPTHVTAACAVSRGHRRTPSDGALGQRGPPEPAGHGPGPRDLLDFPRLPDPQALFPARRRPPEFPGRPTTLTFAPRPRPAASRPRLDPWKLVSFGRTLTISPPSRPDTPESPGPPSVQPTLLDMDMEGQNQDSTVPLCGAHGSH

EPHA3 = molecular target: T2, EPHA3 (Homo sapiens, UniProt P29320); experiment: biochemical; conditions: read-out: % enzyme activity, 1 μM; Run 1, Run 2
T2 sequence (P29320 21-983): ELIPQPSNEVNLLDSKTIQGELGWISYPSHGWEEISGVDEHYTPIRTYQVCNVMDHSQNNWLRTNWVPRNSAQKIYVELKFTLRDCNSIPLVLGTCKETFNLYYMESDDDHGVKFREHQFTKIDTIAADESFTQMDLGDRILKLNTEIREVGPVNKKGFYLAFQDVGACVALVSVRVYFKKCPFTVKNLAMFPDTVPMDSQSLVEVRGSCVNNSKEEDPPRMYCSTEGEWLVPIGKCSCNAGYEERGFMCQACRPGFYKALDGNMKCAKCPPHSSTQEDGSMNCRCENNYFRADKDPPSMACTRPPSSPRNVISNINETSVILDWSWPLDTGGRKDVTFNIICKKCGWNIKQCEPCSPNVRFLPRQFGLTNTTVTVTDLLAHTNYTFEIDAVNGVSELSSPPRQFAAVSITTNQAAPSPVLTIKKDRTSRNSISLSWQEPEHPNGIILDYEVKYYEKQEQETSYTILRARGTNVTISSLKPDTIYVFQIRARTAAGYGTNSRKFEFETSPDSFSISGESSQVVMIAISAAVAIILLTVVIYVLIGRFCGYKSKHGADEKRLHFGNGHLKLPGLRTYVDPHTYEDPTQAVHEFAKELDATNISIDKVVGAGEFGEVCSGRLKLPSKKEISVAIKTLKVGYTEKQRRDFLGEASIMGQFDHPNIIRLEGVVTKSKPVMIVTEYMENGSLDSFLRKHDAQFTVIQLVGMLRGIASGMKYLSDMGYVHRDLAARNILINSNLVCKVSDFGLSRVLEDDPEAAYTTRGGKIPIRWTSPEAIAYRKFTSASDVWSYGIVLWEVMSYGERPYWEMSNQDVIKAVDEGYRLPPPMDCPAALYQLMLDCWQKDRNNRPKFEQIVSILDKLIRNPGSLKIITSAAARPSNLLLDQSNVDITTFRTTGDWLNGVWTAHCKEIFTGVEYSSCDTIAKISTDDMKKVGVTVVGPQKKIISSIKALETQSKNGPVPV

DYRK4 = molecular target: T3, DYRK4 (Homo sapiens, UniProt Q9NR20); experiment: biochemical; conditions: read-out: % enzyme activity, 1 μM; Run 1, Run 2
T3 sequence (Q9NR20 1-520): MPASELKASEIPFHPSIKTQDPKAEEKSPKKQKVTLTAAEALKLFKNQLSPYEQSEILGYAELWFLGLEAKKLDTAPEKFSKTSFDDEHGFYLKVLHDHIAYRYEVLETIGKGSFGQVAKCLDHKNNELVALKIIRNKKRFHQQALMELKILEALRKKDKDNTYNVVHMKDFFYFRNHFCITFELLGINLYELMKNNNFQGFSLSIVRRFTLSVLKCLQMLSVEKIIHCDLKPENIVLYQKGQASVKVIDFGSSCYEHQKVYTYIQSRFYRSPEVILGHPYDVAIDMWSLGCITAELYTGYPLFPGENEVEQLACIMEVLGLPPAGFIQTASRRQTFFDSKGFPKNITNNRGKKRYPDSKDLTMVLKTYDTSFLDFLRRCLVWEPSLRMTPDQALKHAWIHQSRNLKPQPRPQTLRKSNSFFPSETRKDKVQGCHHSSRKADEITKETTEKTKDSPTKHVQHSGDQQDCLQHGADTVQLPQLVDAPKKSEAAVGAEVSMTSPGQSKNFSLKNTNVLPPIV

MST4 = MST4 (Homo sapiens, UniProt Q9P289); conditions: 1 μM; Run 1, Run 2
Sequence of MST4 (Q9P289 whole entry): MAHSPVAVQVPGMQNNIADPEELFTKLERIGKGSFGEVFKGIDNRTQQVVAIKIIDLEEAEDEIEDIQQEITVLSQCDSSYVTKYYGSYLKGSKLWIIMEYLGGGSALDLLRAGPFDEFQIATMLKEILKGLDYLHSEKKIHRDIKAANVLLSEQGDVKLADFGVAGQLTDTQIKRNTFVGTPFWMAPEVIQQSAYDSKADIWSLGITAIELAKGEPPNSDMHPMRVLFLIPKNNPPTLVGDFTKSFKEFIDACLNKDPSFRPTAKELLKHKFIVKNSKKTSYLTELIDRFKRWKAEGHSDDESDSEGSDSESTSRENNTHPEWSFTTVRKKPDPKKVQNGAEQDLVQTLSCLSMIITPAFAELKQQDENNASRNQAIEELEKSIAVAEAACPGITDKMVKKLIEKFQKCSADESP

ALK1/ACVRL1 = molecular target: T4, ALK1/ACVRL1 (Homo sapiens, UniProt P37023); experiment: 375-member kinase panel; format: biochemical; conditions: Run 1, Run 2; for % enzyme activity: 1 μM
T4 construct: purchased Reaction Biology Corporation
T4 sequence (P37023 22-503): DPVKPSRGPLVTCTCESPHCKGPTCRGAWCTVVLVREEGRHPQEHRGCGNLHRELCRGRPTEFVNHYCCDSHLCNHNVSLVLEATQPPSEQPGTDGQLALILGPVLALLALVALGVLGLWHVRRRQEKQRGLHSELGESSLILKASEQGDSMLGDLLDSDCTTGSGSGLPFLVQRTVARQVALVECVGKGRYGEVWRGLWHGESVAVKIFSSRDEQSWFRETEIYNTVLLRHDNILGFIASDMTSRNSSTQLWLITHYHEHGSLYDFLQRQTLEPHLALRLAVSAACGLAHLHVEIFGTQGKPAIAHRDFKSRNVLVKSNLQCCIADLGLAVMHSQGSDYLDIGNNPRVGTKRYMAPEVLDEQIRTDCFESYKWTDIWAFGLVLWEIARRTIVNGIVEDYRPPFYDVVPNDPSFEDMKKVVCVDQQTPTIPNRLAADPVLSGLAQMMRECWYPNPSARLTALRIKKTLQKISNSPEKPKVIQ

MEK1 = MEK1 (Homo sapiens, UniProt Q02750); conditions: 1 μM; Run 1, Run 2
Sequence of MEK1 (Q02750 whole entry): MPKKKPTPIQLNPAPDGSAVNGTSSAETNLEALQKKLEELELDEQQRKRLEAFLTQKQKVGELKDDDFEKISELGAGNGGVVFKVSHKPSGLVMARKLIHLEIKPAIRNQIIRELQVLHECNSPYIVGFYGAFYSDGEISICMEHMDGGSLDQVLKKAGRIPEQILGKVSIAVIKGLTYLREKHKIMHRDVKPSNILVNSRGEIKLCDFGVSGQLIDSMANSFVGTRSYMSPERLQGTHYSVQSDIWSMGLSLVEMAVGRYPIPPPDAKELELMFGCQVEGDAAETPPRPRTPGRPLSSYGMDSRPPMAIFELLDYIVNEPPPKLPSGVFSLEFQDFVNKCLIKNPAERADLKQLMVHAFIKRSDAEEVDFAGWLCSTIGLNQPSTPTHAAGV

CDK9/cyclin T1 = CDK9/cyclin T1 (Homo sapiens, UniProt P50750); experiment: biochemical; conditions: read-out: % enzyme activity, 1 μM; Run 1, Run 2
Sequence of CDK9/cyclin T1 (P50750 whole entry): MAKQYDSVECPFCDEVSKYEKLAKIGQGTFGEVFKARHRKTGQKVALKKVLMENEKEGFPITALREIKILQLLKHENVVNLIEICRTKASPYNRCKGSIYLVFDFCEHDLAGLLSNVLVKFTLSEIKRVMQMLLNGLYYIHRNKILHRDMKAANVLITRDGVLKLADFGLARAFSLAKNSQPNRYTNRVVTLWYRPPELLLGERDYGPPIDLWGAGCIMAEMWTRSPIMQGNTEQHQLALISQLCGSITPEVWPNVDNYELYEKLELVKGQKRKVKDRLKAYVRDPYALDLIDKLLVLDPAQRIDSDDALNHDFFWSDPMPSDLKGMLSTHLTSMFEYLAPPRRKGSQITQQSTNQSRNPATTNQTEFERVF
Sequence of CDK9/cyclin T1 (O60563 whole entry partner): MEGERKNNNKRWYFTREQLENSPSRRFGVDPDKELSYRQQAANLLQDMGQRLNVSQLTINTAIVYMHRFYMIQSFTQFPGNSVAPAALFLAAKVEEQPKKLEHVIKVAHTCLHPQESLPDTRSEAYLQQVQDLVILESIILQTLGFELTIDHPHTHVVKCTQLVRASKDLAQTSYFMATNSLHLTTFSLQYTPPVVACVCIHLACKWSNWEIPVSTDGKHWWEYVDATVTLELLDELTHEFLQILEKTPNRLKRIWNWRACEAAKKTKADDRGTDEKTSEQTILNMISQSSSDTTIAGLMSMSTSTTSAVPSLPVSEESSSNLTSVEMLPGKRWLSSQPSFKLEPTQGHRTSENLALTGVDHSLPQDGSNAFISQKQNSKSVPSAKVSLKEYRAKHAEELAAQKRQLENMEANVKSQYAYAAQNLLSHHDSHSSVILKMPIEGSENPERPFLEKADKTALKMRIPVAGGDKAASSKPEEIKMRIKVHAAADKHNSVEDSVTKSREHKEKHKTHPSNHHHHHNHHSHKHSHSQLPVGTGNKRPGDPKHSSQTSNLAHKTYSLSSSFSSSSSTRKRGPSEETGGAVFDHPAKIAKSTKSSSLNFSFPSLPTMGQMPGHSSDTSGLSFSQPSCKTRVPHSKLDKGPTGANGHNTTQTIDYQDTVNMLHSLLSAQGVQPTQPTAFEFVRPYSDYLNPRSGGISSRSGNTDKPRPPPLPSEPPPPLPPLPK

TYK1/LTK = TYK1/LTK (Homo sapiens, UniProt P29376); experiment: biochemical; conditions: read-out: % enzyme activity, 1 μM; Run 1, Run 2
Sequence of TYK1/LTK (P29376 17-864): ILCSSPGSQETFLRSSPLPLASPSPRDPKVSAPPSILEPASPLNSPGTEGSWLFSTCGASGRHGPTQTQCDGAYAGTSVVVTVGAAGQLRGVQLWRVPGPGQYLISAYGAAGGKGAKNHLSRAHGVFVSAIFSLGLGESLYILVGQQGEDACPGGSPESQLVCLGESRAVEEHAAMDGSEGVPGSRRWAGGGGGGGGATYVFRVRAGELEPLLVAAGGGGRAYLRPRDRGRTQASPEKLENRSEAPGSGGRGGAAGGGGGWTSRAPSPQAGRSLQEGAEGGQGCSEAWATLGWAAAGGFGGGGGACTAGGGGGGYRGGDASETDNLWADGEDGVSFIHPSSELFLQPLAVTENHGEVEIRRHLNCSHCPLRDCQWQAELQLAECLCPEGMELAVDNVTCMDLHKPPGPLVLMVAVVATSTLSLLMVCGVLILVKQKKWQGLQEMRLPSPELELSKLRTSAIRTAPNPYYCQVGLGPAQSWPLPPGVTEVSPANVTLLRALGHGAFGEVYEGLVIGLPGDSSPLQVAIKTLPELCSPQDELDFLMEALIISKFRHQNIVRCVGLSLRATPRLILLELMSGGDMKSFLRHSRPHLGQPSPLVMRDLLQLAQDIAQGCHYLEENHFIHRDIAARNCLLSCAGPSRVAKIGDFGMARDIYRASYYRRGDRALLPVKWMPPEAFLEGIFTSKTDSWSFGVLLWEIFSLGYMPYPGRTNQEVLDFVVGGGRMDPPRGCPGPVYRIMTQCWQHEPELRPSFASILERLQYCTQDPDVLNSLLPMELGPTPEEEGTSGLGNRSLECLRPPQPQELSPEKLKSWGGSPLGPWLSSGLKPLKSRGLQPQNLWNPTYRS

## COc1cc(-c2cncc(-c3ccc(N4CCN(C)CC4)cc3)c2C)cc(F)c1C(N)=O [Compound 26a, 2-Fluoro-6-methoxy-4-(4-methyl-5-(4-(4-methylpiperazin-1-yl)phenyl)pyridin-3-yl)benzamide]
VRK1
  % enzyme activity: 100.69%
MLK2/MAP3K10
  remaining activity at 1 µM: 86.4%
EPHA3
  remaining activity at 1 µM: 95.7%
DYRK4
  remaining activity at 1 µM: 103%
MST4
  % enzyme activity: 85.32%
ALK1/ACVRL1
  % enzyme activity: 2.65%
MEK1
  % enzyme activity: 97.44%
CDK9/cyclin T1
  remaining activity at 1 µM: 90.8%
TYK1/LTK
  remaining activity at 1 µM: 99%

## COc1cc(-c2cncc(-c3ccc(N4C[C@@H](C)N(C)[C@@H](C)C4)cc3)c2C)cc(F)c1C(N)=O [Compound 26c, 2-Fluoro-6-methoxy-4-(4-methyl-5-(4-((3R,5S)-3,4,5-trimethylpiperazin-1-yl)phenyl)pyridin-3-yl)benzamide]
VRK1
  % enzyme activity: 98.74%
MLK2/MAP3K10
  remaining activity at 1 µM: 98.5%
EPHA3
  remaining activity at 1 µM: 101%
DYRK4
  remaining activity at 1 µM: 101%
MST4
  % enzyme activity: 90.97%
ALK1/ACVRL1
  % enzyme activity: 4.38%
ALK1/ACVRL1; read-out: % enzyme activity, 1 μM
  remaining activity at 1 µM: 4.67%
MEK1
  % enzyme activity: 93.40%
CDK9/cyclin T1
  remaining activity at 1 µM: 97.1%
TYK1/LTK
  remaining activity at 1 µM: 99.3%
